Test results: patent US5364882A, “Oxysulfonyl urea ACAT inhibitors” (Warner-Lambert Company, priority 1992, dated 1994)

Columns and labels:
[1] = APCC in vivo screen: blood cholesterol in rats on high fat, high cholesterol diet with 0.5% cholic acid; parameters: species or system male Sprague-Dawley rats; details: 30 mg/kg single dose at 4 PM, high cholesterol diet overnight, blood at 8 AM, vehicle CMC/Tween
Protocol: In one in vivo screen designated APCC, male Sprague-Dawley rats (200 to 225 g) were randomly divided into treatment groups and dosed at 4 PM with either vehicle (CMC/Tween) or suspensions of compounds in vehicle (30 mg/kg). The normal chow diet was then replaced with a high fat, high cholesterol diet with 0.5% cholic acid. The rats consumed this diet ad libitum during the night and were sacrificed at 8 AM to obtain blood samples for cholesterol analysis using standard procedures. Statistical differences between mean cholesterol values for the same vehicle were determined using analysis of variance followed by Fisher's least significant test.

[2] = biological target: T1, acyl-CoA: cholesterol acyltransferase (ACAT) (Oryctolagus cuniculus, UniProt G1SFD9); experiment: In vitro ACAT inhibition (IAI): formation of radiolabeled cholesterol oleate from radiolabeled oleic acid in rabbit intestinal microsomes; type: biochemical; details: concentration required to inhibit enzyme activity by 50%
T1 sequence (G1SFD9 1-524): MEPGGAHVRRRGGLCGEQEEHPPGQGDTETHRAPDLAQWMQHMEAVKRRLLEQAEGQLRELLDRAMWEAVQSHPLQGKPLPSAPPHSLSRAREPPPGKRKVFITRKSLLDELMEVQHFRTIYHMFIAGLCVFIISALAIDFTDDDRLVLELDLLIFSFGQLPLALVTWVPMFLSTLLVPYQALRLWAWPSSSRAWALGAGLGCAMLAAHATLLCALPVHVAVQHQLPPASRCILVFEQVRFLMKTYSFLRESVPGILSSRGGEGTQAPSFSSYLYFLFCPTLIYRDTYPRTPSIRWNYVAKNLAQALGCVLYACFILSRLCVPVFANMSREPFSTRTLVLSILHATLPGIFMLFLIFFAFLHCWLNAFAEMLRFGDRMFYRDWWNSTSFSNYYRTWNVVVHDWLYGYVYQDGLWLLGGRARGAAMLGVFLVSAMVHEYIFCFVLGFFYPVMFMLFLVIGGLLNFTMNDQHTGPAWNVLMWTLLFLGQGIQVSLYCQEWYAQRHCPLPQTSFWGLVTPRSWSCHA
Protocol: The ability of representative compounds of the present invention to inhibit ACAT was measured using an in vitro test more fully described in F. J. Field and R. G. Salone, Biochemica et Biophysica 712:557-570 (1982). The test assesses the ability of a test compound to inhibit the acylation of cholesterol by oleic acid by measuring the amount of radiolabeled cholesterol oleate formed from radiolabeled oleic acid in a tissue preparation containing rabbit intestinal microsomes.

| SMILES | % Change (mg/dl) in cholesterol [1] | IC50 [2] |
| --- | --- | --- |
| CCCCCCCCCCCCCCCCCCOS(=O)(=O)NC(=O)Nc1c(C(C)C)cccc1C(C)C [Example 2, Octadecyl [[[2,6-bis(1-methylethyl)phenyl]amino]carbonyl]sulfamate] | -42% | – |
| CCCCCCCCCCC(C)OS(=O)(=O)NC(=O)Nc1c(C(C)C)cccc1C(C)C (racemic) [Example 8, (±) 1-Methylundecyl [[[2,6-bis(1-methylethyl)phenyl]amino]carbonyl]sulfamate] | -68% | – |
| CCCCCCCCCCCCOS(=O)(=O)NC(=O)Nc1c(C(C)C)cccc1C(C)C [Example 3, Dodecyl [[[2,6-bis(1-methylethyl)phenyl]amino]carbonyl]sulfamate] | -75% | – |
| CC(C)c1cccc(C(C)C)c1NC(=O)NS(=O)(=O)Oc1c(C(C)C)cccc1C(C)C [Example 7, 2,6-bis(1-methylethyl)phenyl [[[2,6-bis (1-methylethyl)phenyl]amino]carbonyl]sulfamate] | -51% | 35 µM |
| CCCCCCC(C)OS(=O)(=O)NC(=O)Nc1c(C(C)C)cccc1C(C)C (racemic) [Example 6, (±) 1-Methylheptyl [[[2,6-bis(1-methylethyl)phenyl]amino]carbonyl]sulfamate] | -43% | 8.7 µM |
| CCCCCCOS(=O)(=O)NC(=O)Nc1c(C(C)C)cccc1C(C)C [Example 1, Hexyl [[[2,6-bis(1-methylethyl)phenyl]amino]carbonyl]sulfamate] | -56% | – |
| CCCCCCCCCCOS(=O)(=O)NC(=O)Nc1c(C(C)C)cccc1C(C)C [Example 5, Decyl [[[2,6-bis(1-methylethyl)phenyl]amino]carbonyl]sulfamate] | -31% | > 10 µM |
| CCCCCCCCCCCCOS(=O)(=O)NC(=O)Nc1c(C(C)C)cccc1C(C)C.[Na] | -58% | – |
